Reference: US7598382B2, “Aryl substituted imidazoquinolines” (Coley Pharmaceutical Group, Inc., priority 2002, dated 2009)

Columns and labels:
[1] = system: tumor necrosis factor-α (TNF-α) production in mouse macrophage cell line Raw 264.7; assay: TNF-α inhibition in mouse cells, single concentration assay (LPS-stimulated Raw 264.7); format: cell-based; settings: Raw 264.7 cells stimulated by LPS (EC70), compound 5 μM (single concentration) or 0.03-10 μM (dose response), 18 to 24 hours, ELISA
Method: The compounds of Formulas I and II are useful as immune response modifiers (IRMs) due to their ability to modulate cytokine biosynthesis (e.g., induce or inhibit the biosynthesis or production of one or more cytokines) and otherwise modulate the immune response when administered to animals. Compounds can be tested per the test procedures described in the Examples Section. Compounds can be tested for induction of cytokine biosynthesis by incubating human PBMC in a culture with the compound(s) at a concentration range of 30 to 0.014 μM and analyzing for interferon (α) or tumor necrosis factor (α) in the culture supernatant. Compounds can be tested for inhibition of cytokine biosynthesis by incubating mouse macrophage cell line Raw 264.7 in a culture with the compound(s) at a single concentration of, for example, 5 μM and analyzing for tumor necrosis factor (α) in the culture supernatant. Compounds can be further tested for dose response by running the test at several compound concentrations, for example, 0.03, 0.1, 0.3, 1, 3, 5, and 10 μM. The ability to modulate cytokine biosynthesis makes the compounds useful in the treatment of a variety of conditions such as viral diseases, neoplastic diseases, and autoimmune diseases that are responsive to such changes in the immune response.
The mouse macrophage cell line Raw 264.7 is used to assess the ability of compounds to inhibit tumor necrosis factor-α (TNF-α) production upon stimulation by lipopolysaccharide (LPS).
Raw cells (ATCC) are harvested by gentle scraping and then counted. The cell suspension is brought to 3×10^5 cells/mL in RPMI with 10% fetal bovine serum (FBS). […]
The compounds are solubilized in dimethyl sulfoxide (DMSO). […] LPS (Lipopolysaccaride from Salmonella typhimurium, Sigma-Aldrich) is diluted with colorless RPMI to the EC70 concentration as measured by a dose response assay. […]
Following the incubation the supernatant is removed with a pipet. TNF-α concentration is determined by ELISA using a mouse TNF-α kit (from Biosource International, Camarillo, Calif.). […]

CC(C)Cn1cnc2c(N)nc3ccc(-n4cccc4)cc3c21 [Example 481, 1-(2-Methylpropyl)-8-(1-pyrrolyl)-1H-imidazo[4,5-c]quinolin-4-amine]
melting point: 227.5 to 231.5 °C
modulate cytokine biosynthesis by inhibiting production of tumor necrosis factor α (TNF-α) [1]: inhibiting production of tumor necrosis factor α (TNF-α)

CC(C)Cn1cnc2c(N)nc3ccc(-c4cccnc4)cc3c21 [Example 14, 1-Isobutyl-8-(pyridin-3-yl)-1H-imidazo[4,5-c]quinolin-4-amine]
melting point: 244 to 246 °C
modulate cytokine biosynthesis by inhibiting production of tumor necrosis factor α (TNF-α) [1]: inhibiting production of tumor necrosis factor α (TNF-α)

CC(C)Cn1cnc2c(N)nc3ccc(-c4ccccc4)cc3c21 [Example 15, 1-Isobutyl-8-phenyl-1H-imidazo[4,5-c]quinolin-4-amine]
melting point: 203 to 204 °C
modulate cytokine biosynthesis by inhibiting production of tumor necrosis factor α (TNF-α) [1]: inhibiting production of tumor necrosis factor α (TNF-α)
